Reference: patent US20130183706A1, “Method for Culturing Adipocytes” (ASSISTANCE PUBLIQUE-HOPITAUX DE PARIS, priority 2010, published 2013)

Tested on: Akt phosphorylation in mature adipocytes
Experiment: Measurement of insulin sensitivity (Ser473 Akt phosphorylation, immunoelectrophoresis)
Assay type: cell-based, human
Details: insulin 10 nM, 15 to 30 minutes; freshly isolated adipocytes (2D) and adipocytes kept 48 h in hydrogel (3D)
Description: The mature adipocytes are isolated by collagenase treatment of human adipose tissue. The subcutaneous human adipose tissue of young women (<45 years) who are not obese (BMI<30) is cut up in digestion medium (DMEM, 2% essentially fatty acid free albumin (A6003, Sigma, St Louis, […]., USA), 1 mg/ml collagenase A (Roche Diagnostics, Mannheim, Germany)) in the proportion of 1 g of tissue per 2 ml of digestion medium in polypropylene tubes. The tubes are placed at 37° C. for […] with agitation (200 cycles/minute). After digestion, the medium is filtered through woven cotton gauze. The mature adipocytes are left to decant by floating for 5 minutes and are then washed 3 times with 5 volumes of 10% sucrose. At the end of the final wash, the sucrose is removed and the mature adipocytes are ready to be incorporated into the PuraMatrix™ hydrogel.
The wells containing the hydrogel/adipocytes deprived of insulin the day before are incubated with the incubation medium (150 μl) (DMEM/F12 and 10 nM insulin). The plates are then placed in the incubator for 15 to 30 minutes. […] The signals are detected by chemiluminescence (Detection ECL, GE Healthcare) and quantified by densitometry.

In the case of Insulin: major anabolic hormone, the “Akt phosphorylation (Ser473)” value is reported as “stimulates”.
